{
  "source": "ChEMBL document CHEMBL1147695",
  "about": "“Synthesis and in vitro evaluation of N-substituted aza-trozamicol analogs as vesicular acetylcholine transporter ligands” (Bioorg Med Chem Lett, 2006)",
  "data": [
    {"biological_target": "T1, Vesicular acetylcholine transporter (Homo sapiens, UniProt Q16572)", "T1 sequence (Q16572 whole entry)": "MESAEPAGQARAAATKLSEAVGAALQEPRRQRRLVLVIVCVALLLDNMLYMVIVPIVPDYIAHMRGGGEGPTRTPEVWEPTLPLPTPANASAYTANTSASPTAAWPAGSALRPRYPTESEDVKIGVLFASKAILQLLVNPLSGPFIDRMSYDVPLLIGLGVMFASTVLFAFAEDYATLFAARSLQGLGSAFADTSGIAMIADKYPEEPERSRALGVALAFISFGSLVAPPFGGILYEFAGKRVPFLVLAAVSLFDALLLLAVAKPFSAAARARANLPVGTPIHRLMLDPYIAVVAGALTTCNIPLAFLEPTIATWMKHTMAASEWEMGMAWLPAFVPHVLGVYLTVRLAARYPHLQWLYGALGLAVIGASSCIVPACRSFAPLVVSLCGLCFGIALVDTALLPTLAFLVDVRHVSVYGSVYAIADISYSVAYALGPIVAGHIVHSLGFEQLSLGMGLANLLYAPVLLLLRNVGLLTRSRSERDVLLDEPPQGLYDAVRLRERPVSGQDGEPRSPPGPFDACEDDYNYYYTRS", "assay": "Displacement of [3H]vesamicol from human VAChT transfected in PC12 cell line", "format": "cell-based, PC-12", "units": {"IC50": "nM"}, "values": [
      {"smiles": "C=CCN1CCC(N2CCN(c3ccccc3)CC2)C(O)C1", "note": "(configuration not stated)", "IC50": "> 100"},
      {"smiles": "C#CCN1CCC(O)C(N2CCN(c3ccccc3)CC2)C1", "note": "(configuration not stated)", "IC50": "> 100"},
      {"smiles": "OC1CN(Cc2ccc(Br)cc2)CCC1N1CCN(c2ccccc2)CC1", "note": "(configuration not stated)", "IC50": "> 100"},
      {"smiles": "C=C(C)CN1CCC(O)C(N2CCN(c3ccccc3)CC2)C1", "note": "(configuration not stated)", "IC50": "> 100"},
      {"smiles": "C#CCN1CCC(N2CCN(c3ccccc3)CC2)C(O)C1", "note": "(configuration not stated)", "IC50": "> 1000"},
      {"smiles": "C=CCN1CCC(O)C(N2CCN(c3ccccc3)CC2)C1", "note": "(configuration not stated)", "IC50": "> 100"},
      {"smiles": "C=C(C)CN1CCC(N2CCN(c3ccccc3)CC2)C(O)C1", "note": "(configuration not stated)", "IC50": "> 100"},
      {"smiles": "C/C=C/CN1CCC(N2CCN(c3ccccc3)CC2)C(O)C1", "note": "(configuration not stated)", "IC50": 100},
      {"smiles": "OC1CN(Cc2cccc(Br)c2)CCC1N1CCN(c2ccccc2)CC1", "note": "(configuration not stated)", "IC50": 66},
      {"smiles": "C/C=C/CN1CCC(O)C(N2CCN(c3ccccc3)CC2)C1", "note": "(configuration not stated)", "IC50": "> 100"},
      {"smiles": "OC1CCN(Cc2ccccc2)CC1N1CCN(c2ccccc2)CC1", "note": "(configuration not stated)", "IC50": "> 100"},
      {"smiles": "CCN1CCC(O)C(N2CCN(c3ccccc3)CC2)C1", "note": "(configuration not stated)", "IC50": "> 1000"},
      {"smiles": "OC1CCN(Cc2ccccc2Br)CC1N1CCN(c2ccccc2)CC1", "note": "(configuration not stated)", "IC50": 47},
      {"smiles": "OC1CCN(C/C=C/I)CC1N1CCN(c2ccccc2)CC1", "note": "(configuration not stated)", "IC50": "> 100"},
      {"smiles": "OC1CCNCC1N1CCN(c2ccccc2)CC1", "note": "(configuration not stated)", "IC50": "> 100"},
      {"smiles": "OC1CN(Cc2ccccc2Br)CCC1N1CCN(c2ccccc2)CC1", "note": "(configuration not stated)", "IC50": 11},
      {"smiles": "OC1CCN(Cc2cccc(Br)c2)CC1N1CCN(c2ccccc2)CC1", "note": "(configuration not stated)", "IC50": 46},
      {"smiles": "OC1CN(Cc2ccccc2)CCC1N1CCN(c2ccccc2)CC1", "note": "(configuration not stated)", "IC50": 57},
      {"smiles": "OC1CNCCC1N1CCN(c2ccccc2)CC1", "note": "(configuration not stated)", "IC50": 100},
      {"smiles": "OC1CCN(Cc2ccc(Br)cc2)CC1N1CCN(c2ccccc2)CC1", "note": "(configuration not stated)", "IC50": "> 100"},
      {"smiles": "OC1CN(C/C=C/I)CCC1N1CCN(c2ccccc2)CC1", "note": "(configuration not stated)", "IC50": "> 100"},
      {"smiles": "CCN1CCC(N2CCN(c3ccccc3)CC2)C(O)C1", "note": "(configuration not stated)", "IC50": "> 1000"}
    ]}
  ]
}
